Reference: US20250127772A1, “SPECIFIC TETRADENTATE COPPER CHELATORS FOR THE TREATMENT OF WILSON'S DISEASE” (GUANGDONG UNIVERSITY OF TECHNOLOGY, priority 2023, published 2025)
“And” between values parts separate entries of the source, which are not always exact repeats. Equal values may be shown once.

Tests used:
[1] = oral administration in adults, WD treatment; cited from earlier work
[2] = test system: homozygous toxic-milk mouse model (TX model); format: in vivo; conditions: TX mice
Excerpt: The selected drug-candidate TDMQ20 has been evaluated on the homozygous toxic-milk mouse model (TX model), a regular murine model of Wilson disease, suitable for evaluation of drug-candidates (for a review, see E. Reed et al., J. Neurochem., 146, 356-373, 2018). TX mice are bearing a naturally occurring point mutation on ATP7B resulting in a methionine changed for a valine, that causes the loss of copper transportation by this protein. C57BL/6 mice have no mutation on ATP7B and were used as control mice in the evaluation of TDMQ20. TX mice were provided by Sun Yat-Sen University (Guangzhou) and C57BL/6 mice by the Guangdong experimental animal center (Guangzhou) and all experiments were performed according to protocols approved by the Welfare Laboratory Animals Committee of the Guangdong University of Technology (approval n° GDUTXS2022083 dated on 3 Aug. 2022), in the framework of the 3 Rs principle.
[…] TX mice (WD) and 8-week-old C57BL/6 mice (Control) were used. TX mice (as WD, TDMQ-L, TDMQ-M, TDMQ-H groups, respectively) received the drug TDMQ20 by intragastric gavage twice a day for 14 consecutive days (at 0, 12.5, 25.0, 50.0 mg/kg in NaCl 0.9%). On the same schedule, C57BL/6 mice (as control group) received NaCl 0.9%. Treatment of WD mice with DPA (200 mg/kg) was used as comparison (DPA group). Six groups of 6 mice were used.
At the end of the treatment period, mice (10-week old) were placed in metabolic cages for 12 h in order to collect urine and feces. At the end of this 12 h-period, mice were anesthetized using 2.5% Avertin diluted in 0.9% NaCl at a dose of […] body weight and sacrificed. Cardiac blood was collected and left at room temperature for 30 minutes before centrifugation at 4° C. at 3000 r/min for 10 minutes to obtain serum samples. During this 30-min period, liver, kidney, brain and serum were also collected. Copper concentrations in urine and feces, serum, liver, kidney and brain were determined by inductively coupled plasma mass spectrometry (ICP-MS). Data analysis was carried out using SPSS Statistics software (version 26). Data are provided as mean values±standard error of the mean (SEM). Statistical analyses were performed using one-way ANOVA for liver, feces and urine, and by non-parametric test for serum, kidney, and brain. Differences with p>0.05 were considered as no significance (ns), * p<0.05, ** p<0.01, and *** p<0.001, n=6. Graph presentations were drawn with Prism GraphPad 8.0.2.

[3] = DPA 200 mg/kg/day gavage 14 days, mean of 6 mice ± SEM

| Compound | adverse effects observed with time [1] | copper concentration in serum versus untreated WD mice ([2]; DPA 200 mg/kg/day) | Cu content Brain [2, 3] | Cu content Feces [2, 3] | Cu content Kidney [2, 3] | Cu content Liver [2, 3] | Cu content Serum [2, 3] | Cu content Urine [2, 3] |
| --- | --- | --- | --- | --- | --- | --- | --- | --- |
| CC(C)(S)[C@@H](N)C(=O)O [DPA, D-penicillamine, reference compound] | nephrotoxicity, aplasia, retinitis and neurological deterioration | not significantly higher | 3.7 ± 0.3 mg/kg | 96 ± 7 mg/kg | 5.4 ± 0.3 mg/kg | 265 mg/kg and 265 ± 9 mg/kg | 0.39 ± 0.03 mg/L | 2.8 ± 0.2 mg/L |
| NCCNCCNCCN [trientine, triethylene-tetramine] | bone marrow depression, anemia, skin rash and hemorrhagic gastritis | – | – | – | – | – | – | – |
